Data on 30 compounds can be found in patent US20080242663A1, “NOVEL PYRIMIDINE DERIVATIVES 698” (ASTRAZENECA AB, priority 2007, published 2008).

The assay addresses T1, recombinant EphB4 (Homo sapiens, UniProt P54760).
T1 construct: amino acids 563-987; Swiss-Prot Acc; No. P54760; purchased ProQinase GmbH 0178-0000-3
T1 sequence (P54760 563-987): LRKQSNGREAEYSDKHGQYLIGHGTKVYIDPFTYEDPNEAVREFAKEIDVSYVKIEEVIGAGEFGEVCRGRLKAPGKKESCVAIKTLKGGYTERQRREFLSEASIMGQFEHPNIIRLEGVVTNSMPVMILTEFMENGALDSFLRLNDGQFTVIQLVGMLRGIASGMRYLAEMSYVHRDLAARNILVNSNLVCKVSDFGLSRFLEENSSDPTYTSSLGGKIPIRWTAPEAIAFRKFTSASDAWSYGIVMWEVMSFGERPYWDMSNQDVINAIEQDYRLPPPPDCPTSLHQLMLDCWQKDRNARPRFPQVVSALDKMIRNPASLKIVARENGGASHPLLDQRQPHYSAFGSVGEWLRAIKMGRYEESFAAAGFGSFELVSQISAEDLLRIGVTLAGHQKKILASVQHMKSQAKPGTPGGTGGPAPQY
As to the kind of experiment: In vitro EphB4 enzyme assay (Alphascreen). Format: biochemical. The method, boiled down:
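Recombinant EphB4 phosphorylated biotin-poly-GAT with Mg-ATP for 1 hr at room temperature; EDTA stop, then Alphascreen donor/acceptor (anti-phosphotyrosine) beads for 20 hrs in the dark. After minimum subtraction, signal plotted against compound concentration to derive IC50.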
Background: Alpha assays give light when donor and acceptor beads are brought close together.
Take `Cc1ccc(Cl)c(N(C)c2ccnc(Nc3cc(N4CCOCC4)cc(N4CCOCC4)c3)n2)c1` [Example 15.18, N′-(2-chloro-5-methyl-phenyl)-N-(3,5-dimorpholin-4-ylphenyl)-N′-methyl-pyrimidine-2,4-diamine]: the IC50 was determined as 1390 nM.
The result for `CN(c1ccnc(Nc2cc(N3CCOCC3)cc(N3CCOCC3)c2)n1)c1ccc(F)cc1F` [Example 10.14, N′-(2,4-difluorophenyl)-N-(3,5-dimorpholin-4-ylphenyl)-N′-methyl-pyrimidine-2,4-diamine] reads 381 nM.
The result for `COc1ccc(NC(C)=O)c(N(C)c2ccnc(Nc3cc(N4CCOCC4)cc(N4CCOCC4)c3)n2)c1` [Example 13.1, N-[2-[[2-[(3,5-dimorpholin-4-ylphenyl)amino]pyrimidin-4-yl]-methyl-amino]-4-methoxy-phenyl]acetamide] reads 470 nM.
Next, `COc1ccc(C)cc1N(C)c1ccnc(Nc2cc(N3CCOCC3)cc(N3CCOCC3)c2)n1` [Example 15.13, N-(3,5-dimorpholin-4-ylphenyl)-N′-(2-methoxy-5-methyl-phenyl)-N′-methyl-pyrimidine-2,4-diamine]: 722 nM; `CN(c1ccc(C#N)cc1)c1ccnc(Nc2cc(N3CCOCC3)cc(N3CCOCC3)c2)n1` [Example 10.17, 4-[[2-[(3,5-dimorpholin-4-ylphenyl)amino]pyrim-idin-4-yl]-methyl-amino]benzonitrile]: 9780 nM.
On to `COc1ccc(F)c(N(C)c2ccnc(Nc3cc(N4CCOCC4)cc(N4CCOCC4)c3)n2)c1` [Example 25.6, N2-(3,5-dimorpholinophenyl)-N4-(2-fluoro-5-methoxyphenyl)-N4-methylpyrimidine-2,4-diamine], for which the IC50 is 7.88 nM.
The result for `CCN(C)C(=O)c1cc(Nc2nccc(N(C)c3cccc(Cl)c3)n2)cc(N2CCOCC2)c1` [Example 19.7, 3-[[4-[(3-chlorophenyl)-methyl-amino]pyrimidin-2-yl]amino]-N-ethyl-N-methyl-5-morpholin-4-yl-benzamide] reads 648 nM; that for `CN(c1ccnc(Nc2cc(N3CCN(CCO)CC3)cc(S(C)(=O)=O)c2)n1)c1ccc(F)c(Cl)c1F` [Example 2.13, 2-[4-[3-[[4-[(3-chloro-2,4-difluoro-phenyl)-methyl-amino]pyrimidin-2-yl]amino]-5-methylsulfonyl-phenyl]piperazin-1-yl] ethanol], 69.7 nM.
On to `COc1ccc(C)c(N(C)c2ccnc(Nc3cc(N4CCOCC4)cc(S(C)(=O)=O)c3)n2)c1` [Example 12.2, N′-(5-methoxy-2-methyl-phenyl)-N′-methyl-N-(3-methylsulfonyl-5-morpholin-4-yl-phenyl)pyrimidine-2,4-diamine], for which the 50% inhibitory concentration (IC50) is 29.4 nM.
Next, `COc1ccc(C)c(N(C)c2ccnc(Nc3cc(N4CCOCC4)cc(N4CCOC[C@@H]4C)c3)n2)c1` [Example 12.8, (S)-N4-(5-methoxy-2-methylphenyl)-N4-methyl-N2-(3-(3-methylmorpholino)-5-morpholinophenyl)pyrimidine2,4-diamine]: 5.82 nM; `CN(c1cccc(Cl)c1)c1ccnc(Nc2cc(C(=O)N3CC[C@@H](O)C3)cc(N3CCOCC3)c2)n1` [Example 19.22, [3-[[4-[(3-chlorophenyl)-methyl-amino]pyrimidin-2-yl]amino]-5-morpholin-4-yl-phenyl]-[(3R)-3-hydroxypyrrolidin-1-yl]methanone]: 119 nM.
Consider `CN(c1ccnc(Nc2cc(N3CCOCC3)cc(N3CCOCC3)c2)n1)c1cc(CO)ccc1Cl` [Example 10.19, [4-chloro-3-[[2-[(3,5-dimorpholin-4-ylphenyl)amino]pyrimidin-4-yl]-methyl-amino]phenyl]methanol], for which the IC50 turned out to be 150 nM.
Take `COc1cc(N(C)c2ccnc(Nc3cc(N4CCOCC4)cc(N4CCOCC4)c3)n2)ccc1C#N` [Example 15.2, 4-[[2-[(3,5-dimorpholin-4-ylphenyl)amino]pyrimidin-4-yl]-methyl-amino]-2-methoxy-benzonitrile]: the IC50 worked out at 206 nM.
The result for `COc1ccc(C)c(N(C)c2ccnc(Nc3cc(N4CCOCC4)cc(N4CCN(C)CC4)c3)n2)c1` [Example 12.4, N′-(5-methoxy-2-methyl-phenyl)-N′-methyl-N-[3-(4-methylpiperazin-1-yl)-5-morpholin-4-yl-phenyl]pyrimidine-2,4-diamine] reads 171 nM; that for `CN(C)C(=O)c1cc(Nc2nccc(N(C)c3ccc(F)c(Cl)c3F)n2)cc(N2CCOCC2)c1` [Example 2.8, 3-[[4-[(3-chloro-2,4-difluoro-phenyl)-methyl-amino]pyrimidin-2-yl]amino]-N,N-dimethyl-5-morpholin-4-yl-benzamide], 335 nM.
The result for `CN(c1ccnc(Nc2cc(N3CCOCC3)cc(N3CCOCC3)c2)n1)c1cc(CO)ccc1F` [Example 25.3, (3-((2-(3,5-dimorpholinophenylamino)pyrimidin-4-yl)(methyl)amino)-4-fluorophenyl)methanol] reads 11.5 nM; that for `COC(C)CCOc1cc(Nc2nccc(N(C)c3cc(CO)ccc3C)n2)cc(N2CCOCC2)c1` (stereo not drawn) [Example 17.6, [3-[[2-[[3-(3-methoxybutoxy)-5-morpholin-4-yl-phenyl]amino]pyrimidin-4-yl]-methyl-amino]-4-methyl-phenyl]methanol], 1210 nM; that for `Cc1ccc(CO)cc1N(C)c1ccnc(Nc2cc(N3CCOCC3)cc(N3CCOCC3=O)c2)n1` [Example 7.16, 4-[3-[[4-[[5-(hydroxymethyl)-2-methyl-phenyl]-methyl-amino]pyrimidin-2-yl]amino]-5-morpholin-4-yl-phenyl]morpholin-3-one], 22.2 nM.
Next, `CN(c1ccnc(Nc2cc(CN3CCC(O)CC3)cc(N3CCOCC3)c2)n1)c1ccc(F)c(Cl)c1F` [Example 2.19, 1-[[3-[[4-[(3-chloro-2,4-difluoro-phenyl)-methyl-amino]pyrimidin-2-yl]amino]-5-morpholin-4-yl-phenyl]methyl]piperidin-4-ol]: 59.6 nM; `CN(c1ccnc(Nc2cc(N3CCOCC3)cc(N3CCOCC3)c2)n1)c1cc(Cl)ccc1CO` [Example 25.8, (4-chloro-2-((2-(3,5-dimorpholinophenylamino)pyrimidin-4-yl)(methyl)amino)phenyl)methanol]: 6.39 nM.
Take `COc1cc(OC)cc(N(C)c2ccnc(Nc3cc(N4CCOCC4)cc(N4CCOCC4)c3)n2)c1` [Example 15.5, N′-(3,5-dimethoxyphenyl)-N-(3,5-dimorpholin-4-ylphenyl)-N′-methyl-pyrimidine-2,4-diamine]: the IC50 stood at 1120 nM.
Next, `CN(c1cccc(Cl)c1)c1ccnc(Nc2cc(C(=O)NC3CCOCC3)cc(N3CCOCC3)c2)n1` [Example 19.24, 3-[[4-[(3-chlorophenyl)-methylamino]pyrimi-din-2-yl]amino]-5-morpholin-4-yl-N-(oxan-4-yl)benzamide]: 1000 nM; `CC(C)CNC(=O)c1cc(Nc2nccc(N(C)c3cccc(Cl)c3)n2)cc(N2CCOCC2)c1` [Example 19.17, 3-[[4-[(3-chlorophenyl)-methyl-amino]pyrimidin-2-yl]amino]-N-(2-methylpropyl)-5-morphohn-4-yl-benzamide]: 2830 nM; `COc1ccc(C)c(N(CCO)c2ccnc(Nc3cc(N4CCOCC4)cc(N4CCOCC4)c3)n2)c1` [Example 22.4, 2-[[2-[(3,5-dimorpholin-4-ylphenyl)amino]pyrimidin-4-yl]-(5-methoxy-2-methyl-phenyl)amino]ethanol]: 802 nM.
The result for `COc1cc(Nc2nccc(N(C)c3ccc(F)c(Cl)c3F)n2)cc(N2CCOCC2)c1` [Example 2.4, N′-(3-chloro-2,4-difluoro-phenyl)-N-(3-methoxy-5-morpholin-4-yl-phenyl)-N′-methyl-pyrimidine-2,4-diamine] reads 348 nM; that for `Cc1ccc(CO)cc1N(C)c1ccnc(Nc2cc(OC3CCOC3)cc(N3CCOCC3)c2)n1` (stereo not drawn) [Example 17.8, [4-methyl-3-[methyl-[2-[[3-morpholin-4-yl-5-(oxolan-3-yloxy)phenyl]ami-no]pyrimidin-4-yl]amino]phenyl]methanol], 481 nM; that for `COc1cc(N(C)c2ccnc(Nc3cc(N4CCOCC4)cc(N4CCOCC4)c3)n2)ccc1C` [Example 15.10, N-(3,5-dimorpholin-4-ylphenyl)-N′-(3-methoxy-4-methyl-phenyl)-N′-methyl-pyrimidine-2,4-diamine], 7730 nM.
Next, `Cc1ccc(CO)cc1N(C)c1ccnc(Nc2cc(OC3CCC3)cc(N3CCOCC3)c2)n1` [Example 17.5, [3-[[2-[(3-cyclobutyloxy-5-morpholin-4-yl-phenyl)amino]pyrimidin-4-yl]-methyl-amino]-4-methyl-phenyl]methanol]: 951 nM.
Consider `COc1ccc(N(C)c2ccnc(Nc3cc(N4CCOCC4)cc(N4CCOCC4)c3)n2)c(C)c1` [Example 15.11, N-(3,5-dimorpholin-4-ylphenyl)-N′-(4-methoxy-2-methyl-phenyl)-N′-methyl-pyrimidine-2,4-diamine], for which the IC50 is 1320 nM.
Next, `Cc1ccc(CO)cc1N(C)c1ccnc(Nc2cc(C(=O)N(C)C(C)C)cc(N3CCOCC3)c2)n1` [Example 18.6, 3-[[4-[[5-(hydroxymethyl)-2-methyl-phenyl]-methyl-amino]pyrimidin-2-yl]amino]-N-methyl-5-morpholin-4-yl-N-propan-2-yl-benzamide]: 342 nM.

As usually defined, the IC50 is the concentration needed to halve the response being measured.
